Data from patent publication US4598080A, “Certain-2-methyl-6-{4-[1-phenyl-1-hydroxypropyl]-phenoxymethyl}pyridines which inhibit microsonal monoxygenase systems in liver” (Richter Gedeon Vegyeszeti Gyar Rt, priority 1982, dated 1986).

How the values were obtained:
hexobarbital oxidase = test: hexobarbital narcosis period (change of hexobarbital oxidase activity in vivo); design: species or system rat; details: mean ± S.E.; for Hexobarbital Narcosis period in % of the control, 1 hour: 1 hour after administration; for Hexobarbital Narcosis period in % of the control (24 hours): 24 hours after administration
Protocol: The enzyme inhibiting activity of the new compounds was tested in vivo, by measuring the change of hexobarbital oxidase activity. Female Hann.-Wistarrats, each weighing 50 to 60 g. were treated orally with a single 40 mg./kg. dose of the test compound. 1 and 24 hours after the administration of the active ingredient, the animals were narcotized with a 60 mg./kg. i.v. dosage of hexobarbital sodium, and the time elapsed until complete wakening was measured (Noordhoek, J.: Eur. J. Pharmacol., 3, 242 (1968)). The data were recorded, and the mean values, the standard errors, as well as the percentage increase with respect to the controls were calculated for each group. […] The hexobarbital concentration of the plasm, measured on the instant wakening, was the same for both the treated and the control animals, and thus the increase of narcosis period was not due to a certain central nervous interaction (Jori, A. et al.: Biochem. Pharmacol., 19, 2687 (1970)).

aminopyrine demethylase = aminopyrine demethylase activity of liver after oral treatment; format: in vivo, rat; details: female H.Wistar rats, single 40 mg./kg. oral dose, liver taken two hours after treatment, results in % of the control (control = 260.7 ± 11.2 nmoles/g/min), mean ± S.E., the values are: activity
Protocol: The enzyme inhibiting activity of the compounds of the formula (I) was further tested by determining the activity of the polysubstrate monooxygense enzyme system of the liver after treatment with the placebo and the compounds according to the invention, respectively. Female H.Wistar rats weighing 50 to 60 g. each were administered a single 40 mg./kg. dose of the test compounds, orally. Two hours after treatment the animals were decapitated and the livers were eliminated. After rinsing with a physiological saline solution at 0° C., drying and weighing, the livers were homogenized in a 0.1 molar Tris-HCl buffer (pH=7.2), containing 1.15% of potassium chloride at 0° C., centrifuged at 9000 g for 20 minutes, and the supernatant (postmitochondrial fraction) was used for further investigations. The microsomal fraction was prepared following the method developed by Cinti D. L. et al.: Biochem. Pharmacol., 21, 3249 (1972). The activity of aniline hydroxylase was determined from the velocity of p-amino-phenol formation according to Chabra R. S. et al.: Toxicol. Appl. Pharmacol., 22, 50 ( 1972). The activity of the aminopyrine demethylase was measured from the amount of the formaldehyde formed, according to Gourlay G. K. et al.: Biochem. Pharmacol., 27, 965 (1978). The control groups were treated with a placebo.

acute toxicity = details: rat, in vivo, po; H-Wistar rats of both sexes, single 500 mg./kg. p.o., observed for 14 days; read-out: Perished animals (%)
Protocol: The acute toxicity of the compounds of the formula (I) was tested on H-Wistar rats of both sexes, weighing 160 to 180 g. each. The compounds were administered in a single 500 mg./kg. dose, orally.

[1] = from H. Ippen: Index Pharmacorum (1970); cited from earlier work
[2] = female Hann.-Wistar rats, single 40 mg./kg. oral dose, hexobarbital sodium 60 mg./kg. i.v.
[3] = reference compound, dose 100 mg/kg

Compound	Hexobarbital Narcosis period in % of the control, 1 hour (hexobarbital oxidase; [2])	Hexobarbital Narcosis period in % of the control (24 hours) (hexobarbital oxidase; [2])	Aminopyrine demethylase (aminopyrine demethylase)	mortality at 336 h (acute toxicity)	anticonvulsive side effect [1]	Hexobarbital Narcosis period in % of the control, 1 hour (hexobarbital oxidase; [3])	Hexobarbital Narcosis period in % of the control (24 hours) (hexobarbital oxidase; [3])
CCC(O)(c1ccc(Cl)cc1)c1ccc(OCc2cccc(C)n2)cc1 (centres unmarked) [A, 2-methyl-6-{4-[1-(4-chlorophenyl)-1-hydroxypropyl]-phenoxymethyl}-pyridine]	259 ± 11.4 % of the control	155 ± 9.6 % of the control	55 ± 4.4%	0%			
CCC(O)(c1ccc(OCc2cccc(C)n2)cc1)c1cc(C)ccc1C (centres unmarked) [B, 2-methyl-6-{4-[1-(2,5-dimethylphenyl)-1-hydroxypropyl]-phenoxymethyl}-pyridine]	135 ± 6.7 % of the control	174 ± 7.2 % of the control	63 ± 4.4%	0%			
CCCC(C(=O)OCCN(CC)CC)(c1ccccc1)c1ccccc1 [Proadiphene, (2-diethylaminoethyl)-α,α-diphenyl valerate, reference compound]					exerted an anticonvulsive side effect	241 ± 9.6 % of the control	44 ± 5.7 % of the control
